Test results published in patent publication US9999611B2, “SIRT 1 activator including syringaresinol” (AMOREPACIFIC CORPORATION, priority 2011, dated 2018).

What was measured:
PGC-1α = PGC-1α mRNA expression promoting effect (qRT-PCR); assay type: cell-based, human; details: 50 μM, vs DMSO control, FIG. 12
Procedure: Human adipocytes, hepatocytes and myocytes were treated with 50 μM syringaresinol in substantially the same manner as in Test Example 3 and washed with PBS. Then, RNA and cDNA were sequentially extracted therefrom. The mRNA expression of the energy metabolism-related genes PGC-1α and PGC-1β was analyzed by qRT-PCR. A result of comparing the expression of PGC-1α and PGC-1β with a control group treated only with DMSO is shown in FIG. 12 and FIG. 13, respectively.

human PBMCs = test: Human PBMC migration and deposition onto 3T3-L1 adipocytes (TNF-induced); assay type: cell-based; details: human PBMCs, 20, 50 or 100 μM, 10 ng/mL TNF, differentiated 3T3-L1 adipocytes, 48 hours; FIG. 20
Procedure: After treating human PBMCs with 20, 50 or 100 μM syringaresinol or DMSO in substantially the same manner as in Test Example 11, inflammatory response was induced by treating with 10 ng/mL TNF. After treating differentiated 3T3-L1 adipocytes (Zen-Bio) with the PBMCs, it was investigated whether the PBMCs migrate onto the adipocytes and deposit. 48 hours later, after removing the PBMCs remaining without migrating, the cells were detached from a culture dish using trypsin/EDTA and then counted using a cell counter.

[1] = system: PGC-1α and PGC-1β, IL-10 and arginase I; test: Change in human PBMC type: expression of type 2 immune cell-related genes; assay type: cell-based; details: human PBMCs, 20, 50 or 100 μM, vs DMSO; FIG. 21
Procedure: After treating human PBMCs with 20, 50 or 100 μM syringaresinol or DMSO in substantially the same manner as in Test Example 11, RNA was extracted from the PBMCs and cDNA was synthesized therefrom in order to measure the expression of type 2 immune cell-related genes. The expression pattern of the transcriptional regulators necessary for inducement of differentiation to type 2 immune cells, such as PGC-1α and PGC-1β, and the genes mainly expressed in type 2 immune cells, such as IL-10 and arginase I, was measured using the synthesized cDNA.

gingival fibroblasts = test: Cellular activity promoting effect in gingival fibroblasts (MTT assay); assay type: cell-based, human; details: cigarette smoke condensate 100 μg/mL, syringaresinol 50 or 100 μg/mL, 2 days, FIG. 3
Procedure: Gingival fibroblasts subcultured for 5-6 times in substantially the same manner as in Test Example 1 were seeded onto a 24-well plate, with 1×10^4 cells per well. After culturing for 1 day, cigarette smoke condensate was added with a concentration of 100 μg/mL in substantially the same manner as in Test Example 1 and the syringaresinol obtained in Example was added after dissolving in DMSO to a concentration of 50 or 100 μg/mL. A control group was treated with DMSO corresponding to 1/1000 of the volume of the culture medium. Also, a group which was treated with neither the cigarette smoke condensate nor the test substance was prepared. After culturing for 2 days and adding 300 μL of 3-(4,5-dimethylthiazol-2-yl)-2,5-diphenyltetrazolium bromide (MTT; Sigma, USA) dissolved in physiological saline per each well, the cells were cultured for 4 hours. After removing the culture medium and dissolving formazan crystals by adding 200 μL of dimethyl sulfoxide (DMSO; Junsei, Japan), absorbance was measured at 540 nm using an ELISA reader (Spectra MAX 250, Molecular Devices Co., USA). Each experiment was repeated 3 times.

SIRT1 = SIRT1 expression recovering effect in gingival fibroblasts treated with cigarette smoke condensate (PCR); assay type: cell-based, human; details: cigarette smoke condensate 100 μg/mL, syringaresinol 50 or 100 μg/mL, 2 days, FIG. 2
Procedure: Experiment was conducted to evaluate whether syringaresinol can recover SIRT1 expression that has been decreased due to smoking in gingival fibroblasts.
Gingival fibroblasts were obtained from tissue biopsies of patients having healthy gingiva. The tissue biopsy was put in a 15-mL test tube holding Dulbecco's modified Eagle's medium (DMEM, Gibco Co., USA) and blood and impurities were removed by washing 3 times. Then, the tissue biopsy was transferred onto a 100-mm tissue culture dish holding DMEM containing 10% fetal bovine serum (Gibco Co., USA) and 1% antibiotics (penicillin G 10,000 units/mL, amphotericin B 25 μg/mL, Gibco Co., USA) and finely cut to 1 mm^2 using a No. 15 blade. Then, 5-6 pieces were uniformly distributed on a 60-mm culture dish. After incubation for about 30 minutes in a 5% CO2 incubator at 37° C. and 100% humidity such that the tissue was uniformly attached on the bottom of the culture dish, 3 mL of DMEM containing 10% fetal bovine serum and 1% antibiotics was added. The culture medium was exchanged with 2-3 day intervals until a single layer of cells was formed. […]
The gingival fibroblasts subcultured 5-6 times were seeded onto a 24-well plate, with 1×10^4 cells per well. […] The expression pattern of the SIRT1 and GAPDH genes was monitored using the synthesized cDNA and predesigned primers and probes (Applied Biosystems; SIRT1, Hs01009006_m1; GAPDH, Hs99999905_m1). […]

Human adipocytes = test: Fatty acid oxidation promoting ability (3H2O in medium), adipocytes; assay type: cell-based; details: 50 μM, vs non-treated group, FIG. 11
Procedure: Human adipocytes, hepatocytes and myocytes were treated with 50 μM syringaresinol in substantially the same manner as in Test Example 3. The cells were washed with PBS and cultured for a day in a medium for fatty acid oxidation analysis. The medium was recovered and the amount of ^3H2O was measured.

COc1cc(C2OCC3C(c4cc(OC)c(O)c(OC)c4)OCC23)cc(OC)c1O (centres unmarked) [syringaresinol]
expression of PGC-1α (PGC-1α; human adipocytes): increased the expression
expression of PGC-1α (PGC-1α; human hepatocytes): increased the expression
expression of PGC-1α (PGC-1α; human myocytes): increased the expression
inhibition of migration and deposition of PBMCs onto adipocytes (human PBMCs): about 50%
expression of type 2 immune cell-specific marker genes [1]: significantly increased expression
cellular activity (MTT, absorbance at 540 nm) (gingival fibroblasts): recovered cellular activity, which had been decreased due to smoking, to a level substantially comparable to the normal level
SIRT1 expression (SIRT1): increased SIRT1 expression in gingival fibroblasts, which had been decreased due to smoking, in a concentration-dependent manner
fatty acid oxidation (Human adipocytes): increased fatty acid oxidation
